The source of these data is US12415939B2, “Nano-adhesive and surface primer compound and use thereof” (The Regents of the University of California, priority 2015, dated 2025).

Structures are written as SMILES.

Data set [1] is described as follows: OFET characterization (saturation hole mobility). Particulars: Au source and drain electrodes. An excerpt: The OFETs were fabricated onto nano-grooved SiO2 substrates prepared by rubbing n^++Si (500 μm)/SiO2 (300 nm) substrate (International Wafer Services Co.) with a diamond lapping disc with particle sizes of 100 nm (Allied High Tech Products Inc.) as described in detail in the previous reports. The Ni (5 nm)/Au (50 nm) source and drain electrodes were patterned on the SiO2 dielectrics through a conventional photolithography process. For OFETs with Ni source and drain electrodes, an additional Ni (10 nm) layer was deposited on top of the pre-deposited Au electrodes. All metal electrodes were deposited by electron beam evaporation at 7×10^−7 Torr. Then, the substrates were sonicated in acetone and isopropanol for cleaning, and were kept in an oven at >100° C. for overnight. After ultraviolet/ozone treatment of pre-cleaned nano-grooved SiO2 substrates for 10 min, the substrates were passivated with the Z-Cat-Ben or Z-Cat-Ben-F SAM by dropping SAM water solution (5 mM) onto the substrates for ˜1 min. The substrates were subsequently rinsed with deionized water for ˜1 min, and were kept in a low vacuum for 10 min to remove residual water. The PCDTPT (1-Material Inc.) was then cast from a chlorobenzene solution (0.25 mg mL^−1) through the sandwich casting in a nitrogen-filled glove box. The devices were then cured at 200° C. for 1 min prior to measurements, and were tested using a probe station (Signatone Co.) in a nitrogen-filled glove box. Data were collected by a Keithley 4200 system.
The field-effect mobilities in the saturation regime were extracted using the following equation, IDS=(W/2L)Cμ(VGS−VT)^2 (7) where, W is the channel width, L is the channel length, C is the gate dielectric capacitance per unit area, μ is the carrier mobility in the saturation regime, IDS is the drain-source current, and VGS is the gate-source voltage. Channel width/length is 1000/200 μm for the devices used in this study. Transistor Characteristics of OFETs with Z-Cat-Ben and Z-Cat-Ben-F: Contact Angle Measurements: […]

Data set [2] can be described thus: Critical aggregation concentration by Wilhelmy plate tensiometry. Particulars: DI water. The class given is physicochemical. As for the experimental part:
Aqueous colloidal dispersions of each homolog were prepared in deoxygenated deionized (DI) water. The critical aggregation concentration (CAC) was determined from the solution surface tension of varying homolog concentrations in deionized (DI) water (e.g., see the red line of Z-Cat-C10 in FIG. 2B) by Wilhelmy plate tensiometry and has been described elsewhere. Use of the CAC instead of CMC here is a hedge to accommodate the uncertainty about whether micelles or other soluble aggregates were forming.
Aqueous colloidal dispersions of each homolog were prepared in deoxygenated deionized (DI) water. The critical aggregation concentration (CAC) was determined from the solution surface tension of varying homolog concentrations in deionized (DI) water (e.g., see the line of Z-Cat-C10 in FIG. 2B) by Wilhelmy plate tensiometry and has been described elsewhere. Use of the CAC instead of CMC here is a hedge to accommodate the uncertainty about whether micelles or other soluble aggregates were forming.

Data set [3] in a line: Standard three point bending peel test. Particulars: ambient dry, n=4. The method, then: Samples were prepared as described above in “Lap Joint Bending Peel Test” underwater, i.e., aqueous periodate solution, then dried 12 h and 24 h, respectively, in ambient condition. In this standard three point bending peel test, the cross section area was 2.54 cm×1.27 cm.
The standard three point bending peel test (FIG. 24F) was conducted with a Bionix 200 tensile tester (MTS Systems) in ambient conditions. All tests were conducted with a test speed of 5 mm min-1.

Data set [4] in a line: AFM images of Z-Cat-C10 films. The class given is physicochemical. The settings on record: 5 mM, on silicon wafers and copper. As for the experimental part: (§1) The adhesion/cohesion energy of the synthetic zwitterionic molecules was investigated in SFA (SurForce LLC, Santa Barbara, CA). Two molecularly smooth freshly cleaved back silvered mica surfaces glued on cylindrical silica discs of radius of curvature, R˜2 cm, were mounted in the SFA and 50 μL of a colloidal dispersion of the synthetic molecules in DI water were injected between the surfaces at different concentrations (C=0.5-5 mM) and the forces between the thin films of the molecules were measured by Multiple Beam Interferometry (MBI). The adhesion forces between Z-Cat-C10 molecules on various surfaces, e.g., silica and copper, were also measured by AFM (MFP-3D, Asylum research, Goleta, CA) in DI water and ambient conditions, respectively, at room temperature. AFM probes with a silicon dioxide particle (10, 5, and 1 μm, respectively) on a silicon nitride (SN) cantilever-0.6 N m^−1 were purchased from Novascan Technologies, Inc (Ames, IA). Cantilever spring constants were measured for each force run. Images of Z-Cat-C10 coating on silicon wafer and copper plates were visualized in an AFM.

A short description of data set [5]: AFM adhesion force runs with silica probe on Z-Cat-C10 coated silicon wafer. The class given is physicochemical. The method, then:
AFM force runs were measured with and without Z-Cat-C10 on silicon wafer and copper plate, respectively, vs. silicon dioxide probe. Underwater force run was conducted for the surface prepared subsequently after spreading the 5 mM Z-Cat-C10, waiting for 2 min, rinsing thoroughly with degassed DI water thoroughly for 3 times. Dry force run was performed after ˜5 min dry of the surface prepared as for the underwater force run. […] Cantilever spring constant (K) for #=10 μm silica tip on silicon wafer and copper plate with Z-Cat-C10, was 0.1 N m^−1.
The measured adhesion, Fa, force (minimum of the potential well of the F vs. D curves obtained from AFM measurements) is related to the adhesion energy per unit area by Wa=Fa/2πR for rigid surfaces with weak adhesive interactions, and by Wa=Fa/1.5πR (used in this study) for soft deformable surfaces with strong adhesion or cohesion. Since copper surface (RMS˜2 nm) is rougher than silicon wafer (RMS<1 nm), the Wa on copper surface was comparatively weaker than the Wa of silicon wafer. Hydroxide/oxide on copper surface also weakens the adhesion to copper plate compared to just oxide on silicon wafer (see FIGS. 18-23). […]
as §1, with “AFM probes with a silicon dioxide particle (10, 5, and 1 μm, respectively) on a silicon nitride (SN) cantilever-0.6 N m^−1 were purchased from Novascan Technologies, Inc (Ames, IA).” left out, “Images of Z-Cat-C10 coating on silicon wafer and copper plates were visualized in an AFM.” left out

On to `C[N+](C)(CCCc1ccccc1)CCOP(=O)([O-])OCCCc1ccc(O)c(O)c1` [Z-Cat-Ben], for which the “saturation hole mobility μ” value in data set [1] came to 22±4 cm^2 V^−1 s^−1.

Regarding `CN(C)CCOP(=O)(O)OCCCc1ccc(O)c(O)c1` [Z-Cat-C10], in data set [2], the “critical aggregation concentration (CAC), rank” value is recorded as “lowest CAC among the homologs”. The “three point bending peel strength” value in data set [3] was found to be 20.5 N cm^−1. In data set [4], the “film thickness (thin, molecularly smooth films)” value was roughly 2 nm. In addition, the “dry Wad relative to catecholic polysiloxane” value in data set [5] (SiO2 and SiO2 surfaces) amounted to 50 fold. Besides, the “adhesion Wad after air-drying” value in data set [5] (air-dried ~5 min, SiO2 and SiO2 surfaces) is listed as roughly 175 mJ m^−2. For the same molecule, the “wet work of adhesion Wad” value in data set [5] (underwater, SiO2 and SiO2 interface, 5 mM coating) is roughly 7.7 mJ m^−2.
